Experimental data reported in ChEMBL document CHEMBL1909046, “DrugMatrix in vitro pharmacology data”.

Key:
[1] = biological target: T1, C-C chemokine receptor type 4 (Homo sapiens, UniProt P51679); format: cell membranes, Chem-1, Membrane; conditions: chem-1
T1 sequence (P51679 whole entry): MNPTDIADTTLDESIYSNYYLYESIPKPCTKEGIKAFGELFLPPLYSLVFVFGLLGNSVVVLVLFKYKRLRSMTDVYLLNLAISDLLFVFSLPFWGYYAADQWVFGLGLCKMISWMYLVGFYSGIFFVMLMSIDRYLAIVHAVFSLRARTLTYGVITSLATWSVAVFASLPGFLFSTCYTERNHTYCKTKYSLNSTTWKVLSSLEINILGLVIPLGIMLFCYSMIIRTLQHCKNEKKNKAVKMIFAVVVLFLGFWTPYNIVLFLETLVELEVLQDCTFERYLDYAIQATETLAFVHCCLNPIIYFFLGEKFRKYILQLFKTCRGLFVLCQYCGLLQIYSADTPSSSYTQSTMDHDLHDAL

[2] = biological target: Receptor tyrosine-protein kinase erbB-2 (Homo sapiens, UniProt P04626); assay: biochemical; format: cell-based, Insect cells; conditions: insect cells;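 note: inhibition of HER2 kinase enzyme activity, measured with Poly(Glu:Tyr) as the phosphorylation substrate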
Receptor tyrosine-protein kinase erbB-2, sequence (P04626 whole entry): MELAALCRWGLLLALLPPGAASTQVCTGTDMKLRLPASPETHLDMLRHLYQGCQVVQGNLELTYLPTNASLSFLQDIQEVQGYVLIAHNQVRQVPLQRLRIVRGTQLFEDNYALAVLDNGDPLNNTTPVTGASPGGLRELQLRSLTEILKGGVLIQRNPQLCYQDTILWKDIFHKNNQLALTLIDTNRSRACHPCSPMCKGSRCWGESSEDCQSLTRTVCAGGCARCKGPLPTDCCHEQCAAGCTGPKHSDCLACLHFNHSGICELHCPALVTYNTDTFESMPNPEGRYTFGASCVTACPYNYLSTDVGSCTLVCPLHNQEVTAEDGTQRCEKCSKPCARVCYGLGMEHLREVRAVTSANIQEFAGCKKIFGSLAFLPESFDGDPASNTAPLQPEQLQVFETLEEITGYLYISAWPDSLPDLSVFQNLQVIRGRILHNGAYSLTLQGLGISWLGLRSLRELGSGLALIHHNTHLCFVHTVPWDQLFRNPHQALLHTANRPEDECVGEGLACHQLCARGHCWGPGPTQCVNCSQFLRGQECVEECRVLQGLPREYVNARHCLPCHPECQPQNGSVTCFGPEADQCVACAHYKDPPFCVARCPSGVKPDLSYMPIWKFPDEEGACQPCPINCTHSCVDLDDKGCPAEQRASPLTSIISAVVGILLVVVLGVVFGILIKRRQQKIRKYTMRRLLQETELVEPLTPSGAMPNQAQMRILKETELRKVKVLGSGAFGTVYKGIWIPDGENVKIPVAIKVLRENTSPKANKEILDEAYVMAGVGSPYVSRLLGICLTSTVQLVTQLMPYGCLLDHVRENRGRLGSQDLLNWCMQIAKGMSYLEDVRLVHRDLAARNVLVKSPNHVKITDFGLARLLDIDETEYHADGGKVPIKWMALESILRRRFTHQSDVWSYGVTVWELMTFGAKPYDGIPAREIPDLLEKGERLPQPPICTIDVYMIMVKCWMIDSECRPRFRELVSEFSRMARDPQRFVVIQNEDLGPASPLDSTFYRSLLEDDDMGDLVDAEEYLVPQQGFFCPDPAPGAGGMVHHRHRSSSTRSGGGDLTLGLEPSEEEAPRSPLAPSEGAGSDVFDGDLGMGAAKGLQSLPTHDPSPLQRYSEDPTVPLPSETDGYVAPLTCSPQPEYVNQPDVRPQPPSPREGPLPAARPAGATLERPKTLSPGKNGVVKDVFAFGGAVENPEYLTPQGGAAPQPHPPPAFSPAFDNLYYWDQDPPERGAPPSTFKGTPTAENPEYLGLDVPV

[3] = biological target: 5-hydroxytryptamine receptor 1B (Rattus norvegicus, UniProt P28564); format: cell membranes, Wistar, Cerebral cortex, Membrane
5-hydroxytryptamine receptor 1B, sequence (P28564 whole entry): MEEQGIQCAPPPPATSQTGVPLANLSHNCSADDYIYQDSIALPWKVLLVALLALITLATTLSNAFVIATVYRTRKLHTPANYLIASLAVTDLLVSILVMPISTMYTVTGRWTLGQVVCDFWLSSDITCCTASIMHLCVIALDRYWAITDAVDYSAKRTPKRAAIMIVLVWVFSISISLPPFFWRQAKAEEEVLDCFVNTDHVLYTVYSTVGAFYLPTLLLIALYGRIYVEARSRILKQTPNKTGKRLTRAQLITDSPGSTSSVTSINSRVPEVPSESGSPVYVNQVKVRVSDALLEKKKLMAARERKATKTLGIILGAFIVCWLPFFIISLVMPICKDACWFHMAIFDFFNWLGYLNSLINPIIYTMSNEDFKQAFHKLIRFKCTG

[4] = biological target: T2, Muscarinic acetylcholine receptor M2 (Homo sapiens, UniProt P08172); format: cell membranes, CHO-K1, Membrane; conditions: cho-k1
T2 sequence (P08172 whole entry): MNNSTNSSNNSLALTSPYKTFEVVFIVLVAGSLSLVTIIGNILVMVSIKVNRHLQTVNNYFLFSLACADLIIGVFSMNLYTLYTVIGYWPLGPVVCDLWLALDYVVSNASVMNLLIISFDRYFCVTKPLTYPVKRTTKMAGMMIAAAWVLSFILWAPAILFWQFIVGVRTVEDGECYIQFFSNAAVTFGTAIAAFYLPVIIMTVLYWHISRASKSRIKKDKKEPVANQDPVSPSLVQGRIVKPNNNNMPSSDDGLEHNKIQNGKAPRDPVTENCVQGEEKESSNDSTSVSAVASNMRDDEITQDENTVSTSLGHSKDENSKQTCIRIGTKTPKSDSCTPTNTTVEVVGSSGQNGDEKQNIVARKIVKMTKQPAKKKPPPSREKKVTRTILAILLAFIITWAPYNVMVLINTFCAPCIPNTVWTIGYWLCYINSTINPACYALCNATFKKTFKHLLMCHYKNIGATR

Adenosine receptor A1 = biological target: T3, Adenosine receptor A1 (Homo sapiens, UniProt P30542); format: cell membranes, CHO, Membrane; conditions: cho;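 note: radioligand binding assay at the adenosine A1 receptor, with DPCPX serving as the labelled ligand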
T3 sequence (P30542 whole entry): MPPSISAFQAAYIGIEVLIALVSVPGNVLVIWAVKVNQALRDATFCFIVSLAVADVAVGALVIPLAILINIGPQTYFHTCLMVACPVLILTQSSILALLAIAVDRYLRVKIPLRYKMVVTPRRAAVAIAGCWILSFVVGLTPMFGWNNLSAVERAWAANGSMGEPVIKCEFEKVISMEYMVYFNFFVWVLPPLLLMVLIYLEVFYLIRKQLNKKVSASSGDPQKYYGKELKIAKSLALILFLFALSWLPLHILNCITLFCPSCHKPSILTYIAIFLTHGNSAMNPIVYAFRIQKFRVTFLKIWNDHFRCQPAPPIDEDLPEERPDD

[5] = biological target: T4, C-X-C chemokine receptor type 1 (Homo sapiens, UniProt P25024)
T4 sequence (P25024 whole entry): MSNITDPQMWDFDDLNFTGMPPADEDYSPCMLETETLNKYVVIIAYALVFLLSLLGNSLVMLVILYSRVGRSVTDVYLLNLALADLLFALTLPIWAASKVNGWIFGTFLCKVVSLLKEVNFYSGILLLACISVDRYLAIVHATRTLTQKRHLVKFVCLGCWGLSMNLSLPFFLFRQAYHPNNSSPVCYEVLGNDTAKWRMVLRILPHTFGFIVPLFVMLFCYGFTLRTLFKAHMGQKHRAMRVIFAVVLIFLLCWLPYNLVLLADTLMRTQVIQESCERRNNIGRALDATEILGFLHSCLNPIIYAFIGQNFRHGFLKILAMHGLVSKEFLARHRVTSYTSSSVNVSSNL

Measured: IC50
Note: in other assays of this panel Not Active means under 50% inhibition at 10 µM.

O=C(CCCN1CC=C(n2c(=O)[nH]c3ccccc32)CC1)c1ccc(F)cc1 [DROPERIDOL]
Not Active: all assays above

CCCCc1nc(Cl)c(CO)n1Cc1ccc(-c2ccccc2-c2nnn[nH]2)cc1 [LOSARTAN]
Not Active: all assays above

Cc1cc(C2CCCCC2)n(O)c(=O)c1 [CICLOPIROX]
Not Active: all assays above

CCCCN1CCCC[C@H]1C(=O)Nc1c(C)cccc1C [LEVOBUPIVACAINE]
Not Active: all assays above

CC[C@@]1(O)C[C@H](O[C@H]2C[C@H](N(C)C)[C@H](O[C@H]3C[C@H](O)[C@H](O[C@H]4CCC(=O)[C@H](C)O4)[C@H](C)O3)[C@H](C)O2)c2c(cc3c(c2O)C(=O)c2c(O)cccc2C3=O)[C@H]1C(=O)OC [ACLARUBICIN]
Not Active: all assays above

CC(=O)O[C@@]12CO[C@@H]1C[C@H](O)[C@@]1(C)C(=O)[C@H](O)C3=C(C)[C@@H](OC(=O)[C@H](O)[C@@H](NC(=O)OC(C)(C)C)c4ccccc4)C[C@@](O)([C@@H](OC(=O)c4ccccc4)[C@H]21)C3(C)C.O.O.O [DOCETAXEL]
Not Active: all assays above

N=C(N)NCCN1CCCCCCC1 [GUANETHIDINE]
Not Active: all assays above

CNCCc1ccccn1 [BETAHISTINE]
Not Active: all assays above

COc1cc2nc(N3CCN(C(=O)C4COc5ccccc5O4)CC3)nc(N)c2cc1OC (centres undefined) [DOXAZOSIN]
Not Active: all assays above

Clc1cccc(Cl)c1NC1=NCCN1 [CLONIDINE]
Not Active: all assays above

C[C@H](CS)C(=O)N1CCC[C@H]1C(=O)O [CAPTOPRIL]
Not Active: all assays above

CC(C)(Oc1ccc(Cl)cc1)C(=O)O [CLOFIBRIC ACID]
Not Active: all assays above

OC(Cn1cncn1)(Cn1cncn1)c1ccc(F)cc1F [FLUCONAZOLE]
Not Active: all assays above

O=C1CC[C@@H](N2C(=O)c3ccccc3C2=O)C(=O)N1
Not Active: all assays above
